Results as given in US20150080475A1, “Memantine Protects Inflammation-Related Degeneration of Dopamine Neurons Through Inhibition of Over-Activated Microglia and Release of Neurotrophic Factors From Astroglia” (priority 2009, published 2015).

Tested on: DA neurons
Experiment: MPP+-induced reduction in DA uptake in neuron-enriched cultures
Assay type: cell-based
Conditions: MPP+ 0.25 μM, seven days, neuron-enriched cultures
Method: Mesencephalic neuron-glia cultures were seeded (5×10^5/well) in 24 well plates precoated with poly D-lysine. Thirty-six hours postseeding, 5-10 μM cytosine β-D-arabinofuranoside was added to the culture. After 2 days, the cytosine β-D-arabinofuranoside was removed and replaced with fresh media. Neuron-enriched cultures are 98% pure, as indicated by ICC staining with OX-42 and GFAP antibodies. Neuron-enriched cultures were treated 7 days post-seeding. For microglia add-back cultures, the microglia were plated on top of the neuron-enriched culture at 6 days postseeding, resulting in the addition of either 10% (500 μL of 1×10^5) or 20% (500 μL of 2×10^5) microglia. […]
Cells were incubated in Krebs-Ringer buffer (16 mM NaH2PO4, 1.2 mM MgSO4, 1.3 mM EDTA, […], for 21 min at 37° C. with 1 μM [^3H] DA. Nonspecific uptake was blocked for DA with 10 μM mazindole. After incubation, cells were washed three times with 1 mL/well of ice-cold Krebs-Ringer buffer. Cells were then lysed with 0.5 mL/well of 1 N NaOH and mixed with 15 mL of scintillation fluid. Radioactivity was measured on a scintillation counter, where specific [^3H] DA uptake was calculated by subtracting the mazindole.
To determine whether the neuroprotective effect of MMT was dependent on the presence of glial cells, the effects of MMT on the neuron-enriched cultures were determined. […]

C[n+]1ccc(-c2ccccc2)cc1 [MPP^+]
reduction of DA uptake compared with control cultures: 31%
